Assay results taken from ChEMBL document CHEMBL3120136 (J Med Chem, 2014).
Values after ≈ are worked out from the molar mass of the structure shown.

How the values were obtained:
[1] = Inhibition of Hepatitis C virus genotype 4 NS3/4A protease using Ac-DE-Dap(QXL520)-EE-Abu-psi-[COO]-AS-Cys(5-FAMsp)-NH2 as substrate by FRET analysis
[2] = Oral bioavailability in rat liver; type: ADME, organism-based
Cytochrome P450 3A4 [3] = molecular target: T1, Cytochrome P450 3A4 (Homo sapiens, UniProt P08684); test: Time-dependent induction of CYP3A4 (unknown origin); type: ADME
Cytochrome P450 2D6 = Cytochrome P450 2D6 (Homo sapiens, UniProt P10635); test: Inhibition of CYP2D6 (unknown origin); type: ADME
[4] = Oral bioavailability in monkey liver; type: ADME, organism-based, Macaca mulatta; conditions: rhesus monkey
[5] = Permeability from apical to basolateral side of human Caco2 cells; type: ADME, cell-based; conditions: Caco-2, read-out: permeability
[6] = Aqueous solubility of the compound at pH 7.4 by modified shake-flask method; type: physicochemical
Rattus norvegicus = test: Volume of distribution at steady state in Sprague-Dawley rat at 1 mg/kg, iv by HPLC-MS/MS analysis; conditions: in vivo
Hepatitis C virus [7] = test: Antiviral activity against Hepatitis C virus genotype 1b infected in human HuH7 cells assessed as decrease in replicon RNA level after 2 days by TaqMan Gold RT-PCR analysis; type: functional, organism-based, Hepacivirus hominis; conditions: Huh-7, 48 h
Hepatitis C virus [8] = test: Antiviral activity against Hepatitis C virus genotype 2 infected in human HuH7 cells assessed as decrease in replicon RNA level after 2 days by TaqMan Gold RT-PCR analysis; type: functional, organism-based, Hepacivirus hominis; conditions: genotype 2, Huh-7, 48 h
Cytochrome P450 2C9 = Cytochrome P450 2C9 (Homo sapiens, UniProt P11712); test: Inhibition of CYP2C9 (unknown origin); type: ADME
[9] = Metabolic stability in human hepatocytes assessed as extraction ratio at 1 uM; type: ADME, cell-based, Hepatocyte; conditions: read-out: ERH
[10] = Inhibition of Hepatitis C virus genotype 6 NS3/4A protease using Ac-DE-Dap(QXL520)-EE-Abu-psi-[COO]-AS-Cys(5-FAMsp)-NH2 as substrate by FRET analysis
Hepatitis C virus [11] = test: Antiviral activity against Hepatitis C virus genotype 3 infected in human HuH7 cells assessed as decrease in replicon RNA level after 2 days by TaqMan Gold RT-PCR analysis; type: functional, organism-based, Hepacivirus hominis; conditions: genotype 3, Huh-7, 48 h
[12] = AUC (0 to 24 hrs) in Sprague-Dawley rat plasma at 30 mg/kg, po by HPLC-MS/MS analysis; type: ADME, organism-based; set-up: time < 24 hr, dose 30 mg/kg, route oral
NS3 protease = NS3 protease (Hepacivirus C, UniProt C1KIQ2, A156T); test: Inhibition of Hepatitis C virus genotype 1a NS3/4A protease A156T mutant expressed in Escherichia coli BL21 (DE3) cells assessed as substrate cleavage using Ac-DE-Dap(QXL520)-EE-Abu-psi-[COO]AS-C(5-FAMsp)-NH2 as substrate by plate reader analysis; set-up: species or system Hepatitis C virus subtype 1a
Hepatitis C virus [13] = test: Antiviral activity against Hepatitis C virus harboring wild type NS3/4A protease infected in human HuH7 cells assessed as inhibition of HCV subgenomic replicon replication after 72 hrs by ELISA; type: functional, organism-based, Hepacivirus hominis; conditions: Huh-7, 72 h
[14] = Inhibition of Hepatitis C virus full-length NS3/4A protease assessed as quenched-fluorogenic RET-S1 substrate cleavage incubated for 10 mins prior to substrate addition by FRET analysis; set-up: species or system Hepacivirus hominis
[15] = Aqueous solubility of the compound at pH 1.2 by modified shake-flask method; type: physicochemical
[16] = Metabolic stability in dog hepatocytes assessed as extraction ratio at 1 uM; type: ADME, cell-based, Canis lupus familiaris, Hepatocyte; conditions: read-out: ERH
[17] = Inhibition of Hepatitis C virus genotype 1b NS3/4A protease using Ac-DE-Dap(QXL520)-EE-Abu-psi-[COO]-AS-Cys(5-FAMsp)-NH2 as substrate by FRET analysis; set-up: species or system Hepatitis C virus subtype 1b
[18] = Inhibition of Hepatitis C virus genotype 5 NS3/4A protease using Ac-DE-Dap(QXL520)-EE-Abu-psi-[COO]-AS-Cys(5-FAMsp)-NH2 as substrate by FRET analysis
Hepatitis C virus [19] = test: Ratio of EC50 for Hepatitis C virus harboring NS3/4A protease A156T mutant gene to EC50 for Hepatitis C virus harboring wild type NS3/4A protease infected in human HuH7 cells; type: functional, Hepacivirus hominis, Huh-7
Hepatitis C virus [20] = test: Antiviral activity against Hepatitis C virus […] isolate Con1 harboring wild type NS3/4A protease infected in human HuH7 cells assessed as inhibition of HCV replicon replication by luciferase assay; type: functional, organism-based, Hepacivirus hominis; conditions: isolate Con1, Huh-7
[21] = Inhibition of Hepatitis C virus genotype 2b NS3/4A protease using Ac-DE-Dap(QXL520)-EE-Abu-psi-[COO]-AS-Cys(5-FAMsp)-NH2 as substrate by FRET analysis; set-up: species or system Hepatitis C virus subtype 2b
[22] = Inhibition of Hepatitis C virus genotype 1a NS3/4A protease using Ac-DE-Dap(QXL520)-EE-Abu-psi-[COO]-AS-Cys(5-FAMsp)-NH2 as substrate by FRET analysis; set-up: species or system Hepatitis C virus subtype 1a
Hepatitis C virus [23] = test: Antiviral activity against Hepatitis C virus infected in human HuH7 cells assessed as inhibition of HCV subgenomic replicon replication after 72 hrs by ELISA; type: functional, organism-based, Hepacivirus hominis, Huh-7; conditions: Hepatitis C virus, Huh-7, 72 h; read-out: EC50
[24] = Inhibition of Hepatitis C virus genotype 1a wild type NS3/4A protease expressed in Escherichia coli BL21 (DE3) cells assessed as substrate cleavage using Ac-DE-Dap(QXL520)-EE-Abu-psi-[COO]AS-C(5-FAMsp)-NH2 as substrate by plate reader analysis; set-up: species or system Hepatitis C virus subtype 1a
[25] = Cytotoxicity against human MT4 cells; type: cell-based
Hepatitis C virus [26] = test: Antiviral activity against Hepatitis C virus harboring NS3/4A protease A156T mutant gene infected in human HuH7 cells assessed as inhibition of HCV subgenomic replicon replication after 72 hrs by ELISA; type: functional, organism-based, Hepacivirus hominis; conditions: Huh-7, 72 h
[27] = Inhibition of Hepatitis C virus genotype 3a NS3/4A protease using Ac-DE-Dap(QXL520)-EE-Abu-psi-[COO]-AS-Cys(5-FAMsp)-NH2 as substrate by FRET analysis; set-up: species or system Hepatitis C virus subtype 3a
[28] = Metabolic stability in cynomolgus monkey hepatocytes assessed as extraction ratio at 1 uM; type: ADME, cell-based, Macaca fascicularis, Hepatocyte; conditions: read-out: ERH
[29] = molecular target: Voltage-gated inwardly rectifying potassium channel KCNH2 (Homo sapiens, UniProt Q12809); test: Inhibition of human ERG at 10 uM
Cytochrome P450 2C19 = Cytochrome P450 2C19 (Homo sapiens, UniProt P33261); test: Inhibition of CYP2C19 (unknown origin); type: ADME
[30] = Plasma clearance in rat assessed as extraction ratio; type: ADME, organism-based; conditions: read-out: ERH
Cytochrome P450 3A4 [31] = molecular target: T1, Cytochrome P450 3A4; test: Inhibition of CYP3A4 (unknown origin); type: ADME
[32] = AUC (0 to 24 hrs) in Sprague-Dawley rat liver at 30 mg/kg, po by HPLC-MS/MS analysis; type: ADME, organism-based; set-up: time < 24 hr, dose 30 mg/kg, route oral
[33] = Efflux ratio of permeability from basolateral to apical side over apical to basolateral side in human Caco2 cells; type: ADME, cell-based; conditions: Caco-2
[34] = Dissociation constant, pKa of the compound; type: physicochemical
[35] = Metabolic stability in rat hepatocytes assessed as extraction ratio at 1 uM; type: ADME, cell-based, Hepatocyte; conditions: read-out: ERH
[36] = Lipophilicity, log D of the compound; type: physicochemical; conditions: octanol/water
[37] = Ratio of AUC (0 to 24 hrs) in liver to plasma in Sprague-Dawley rat at 30 mg/kg, po by HPLC-MS/MS analysis; type: ADME, organism-based; set-up: dose 30 mg/kg, route oral; conditions: Sprague-Dawley, liver and plasma, read-out: Ratio AUC
Hepatitis C virus [38] = test: Antiviral activity against Hepatitis C virus […] isolate Con1 harboring NS3/4A protease A156T mutant gene infected in human HuH7 cells assessed as inhibition of HCV replicon replication by luciferase assay; type: functional, organism-based, Hepacivirus hominis; conditions: isolate Con1, Huh-7
Cytochrome P450 1A2 = molecular target: T2, Cytochrome P450 1A2 (Homo sapiens, UniProt P05177); test: Inhibition of CYP1A2 (unknown origin); type: ADME
T2 sequence (P05177 whole entry): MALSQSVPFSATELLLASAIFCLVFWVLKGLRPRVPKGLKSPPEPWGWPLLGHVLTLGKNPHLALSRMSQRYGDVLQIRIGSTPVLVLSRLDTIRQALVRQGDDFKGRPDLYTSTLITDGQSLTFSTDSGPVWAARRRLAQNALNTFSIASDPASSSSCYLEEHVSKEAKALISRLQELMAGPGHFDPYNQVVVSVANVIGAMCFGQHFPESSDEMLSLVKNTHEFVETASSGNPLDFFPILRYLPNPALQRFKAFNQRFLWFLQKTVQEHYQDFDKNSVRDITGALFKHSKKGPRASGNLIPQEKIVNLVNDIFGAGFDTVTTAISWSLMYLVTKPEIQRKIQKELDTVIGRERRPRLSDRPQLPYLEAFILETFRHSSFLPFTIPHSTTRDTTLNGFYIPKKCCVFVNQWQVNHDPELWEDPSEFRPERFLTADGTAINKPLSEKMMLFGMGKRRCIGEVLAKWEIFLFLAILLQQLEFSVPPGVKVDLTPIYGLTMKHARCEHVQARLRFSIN

[39] = Ratio of drug level in liver to plasma in dog; type: ADME, tissue-based, Canis lupus familiaris; conditions: liver and plasma
[40] = Aqueous solubility of the compound at pH 6.5 by modified shake-flask method; type: physicochemical
[41] = Ratio of EC50 for Hepatitis C virus infected in human HuH7 cells to IC50 for Hepatitis C virus full-length NS3/4A protease; set-up: species or system Huh-7

T1 sequence (P08684 whole entry): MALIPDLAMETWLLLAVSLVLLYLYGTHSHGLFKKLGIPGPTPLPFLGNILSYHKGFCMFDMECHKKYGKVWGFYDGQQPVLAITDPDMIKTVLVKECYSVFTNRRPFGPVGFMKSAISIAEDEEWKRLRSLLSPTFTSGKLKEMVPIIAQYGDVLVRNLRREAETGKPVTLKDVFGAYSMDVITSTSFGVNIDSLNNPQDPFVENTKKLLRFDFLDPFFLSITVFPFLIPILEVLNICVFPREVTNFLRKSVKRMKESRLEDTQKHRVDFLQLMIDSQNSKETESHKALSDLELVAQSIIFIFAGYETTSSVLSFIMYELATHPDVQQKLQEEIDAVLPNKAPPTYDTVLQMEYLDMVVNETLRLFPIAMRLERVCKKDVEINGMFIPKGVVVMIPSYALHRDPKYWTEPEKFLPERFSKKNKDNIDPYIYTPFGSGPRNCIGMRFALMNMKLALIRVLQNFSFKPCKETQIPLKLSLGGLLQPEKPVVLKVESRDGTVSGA
Sequence of Cytochrome P450 2C9 (P11712 whole entry): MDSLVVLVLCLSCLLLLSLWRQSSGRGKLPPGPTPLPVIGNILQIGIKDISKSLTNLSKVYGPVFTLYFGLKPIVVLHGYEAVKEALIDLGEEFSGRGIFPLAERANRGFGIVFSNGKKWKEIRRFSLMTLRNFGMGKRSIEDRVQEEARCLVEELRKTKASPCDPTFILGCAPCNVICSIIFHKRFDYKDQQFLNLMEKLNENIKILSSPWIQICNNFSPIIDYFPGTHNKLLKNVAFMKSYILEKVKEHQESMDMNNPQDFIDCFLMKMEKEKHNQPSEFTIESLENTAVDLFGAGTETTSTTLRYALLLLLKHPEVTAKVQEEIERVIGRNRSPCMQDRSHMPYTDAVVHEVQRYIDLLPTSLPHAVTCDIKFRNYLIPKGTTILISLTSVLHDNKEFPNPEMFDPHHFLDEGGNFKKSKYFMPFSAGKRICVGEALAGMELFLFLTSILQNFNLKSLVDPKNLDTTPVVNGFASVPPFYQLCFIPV
Sequence of NS3 protease (C1KIQ2 entry or part of it A156T): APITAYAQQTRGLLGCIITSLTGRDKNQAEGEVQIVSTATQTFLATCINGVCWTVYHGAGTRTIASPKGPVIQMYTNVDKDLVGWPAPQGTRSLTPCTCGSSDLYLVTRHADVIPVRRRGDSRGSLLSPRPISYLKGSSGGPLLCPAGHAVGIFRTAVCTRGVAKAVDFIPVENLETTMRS
Sequence of Voltage-gated inwardly rectifying potassium channel KCNH2 (Q12809 whole entry): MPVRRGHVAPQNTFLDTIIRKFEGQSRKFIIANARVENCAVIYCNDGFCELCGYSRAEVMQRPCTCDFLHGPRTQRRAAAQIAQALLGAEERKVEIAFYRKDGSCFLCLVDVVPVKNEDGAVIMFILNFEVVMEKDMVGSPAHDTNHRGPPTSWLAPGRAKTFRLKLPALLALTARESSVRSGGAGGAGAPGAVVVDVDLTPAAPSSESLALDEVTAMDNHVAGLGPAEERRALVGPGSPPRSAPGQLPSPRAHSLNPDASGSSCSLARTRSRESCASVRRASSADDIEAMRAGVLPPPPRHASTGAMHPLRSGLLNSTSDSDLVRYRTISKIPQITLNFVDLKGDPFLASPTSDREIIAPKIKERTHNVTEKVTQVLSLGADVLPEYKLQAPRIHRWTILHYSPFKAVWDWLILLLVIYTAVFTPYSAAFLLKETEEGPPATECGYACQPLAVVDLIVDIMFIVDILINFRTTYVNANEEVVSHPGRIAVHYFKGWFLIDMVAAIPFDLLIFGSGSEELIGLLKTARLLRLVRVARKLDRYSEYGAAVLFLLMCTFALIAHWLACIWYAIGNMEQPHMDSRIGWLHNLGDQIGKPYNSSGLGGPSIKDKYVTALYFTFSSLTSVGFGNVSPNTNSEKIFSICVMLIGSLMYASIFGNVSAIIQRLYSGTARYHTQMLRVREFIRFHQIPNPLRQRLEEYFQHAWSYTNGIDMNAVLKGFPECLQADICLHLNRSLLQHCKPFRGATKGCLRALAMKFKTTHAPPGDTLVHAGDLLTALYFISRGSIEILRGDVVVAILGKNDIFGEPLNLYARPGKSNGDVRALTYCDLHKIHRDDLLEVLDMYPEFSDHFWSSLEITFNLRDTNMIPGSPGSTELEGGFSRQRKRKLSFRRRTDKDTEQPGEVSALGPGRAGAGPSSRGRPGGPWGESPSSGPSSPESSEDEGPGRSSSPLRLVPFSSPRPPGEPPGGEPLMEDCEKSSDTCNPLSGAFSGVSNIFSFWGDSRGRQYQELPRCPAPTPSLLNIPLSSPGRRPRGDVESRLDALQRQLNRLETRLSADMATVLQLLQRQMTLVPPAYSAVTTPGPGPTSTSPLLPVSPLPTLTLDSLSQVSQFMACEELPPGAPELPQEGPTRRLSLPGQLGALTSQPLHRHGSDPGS
Sequence of Cytochrome P450 2D6 (P10635 whole entry): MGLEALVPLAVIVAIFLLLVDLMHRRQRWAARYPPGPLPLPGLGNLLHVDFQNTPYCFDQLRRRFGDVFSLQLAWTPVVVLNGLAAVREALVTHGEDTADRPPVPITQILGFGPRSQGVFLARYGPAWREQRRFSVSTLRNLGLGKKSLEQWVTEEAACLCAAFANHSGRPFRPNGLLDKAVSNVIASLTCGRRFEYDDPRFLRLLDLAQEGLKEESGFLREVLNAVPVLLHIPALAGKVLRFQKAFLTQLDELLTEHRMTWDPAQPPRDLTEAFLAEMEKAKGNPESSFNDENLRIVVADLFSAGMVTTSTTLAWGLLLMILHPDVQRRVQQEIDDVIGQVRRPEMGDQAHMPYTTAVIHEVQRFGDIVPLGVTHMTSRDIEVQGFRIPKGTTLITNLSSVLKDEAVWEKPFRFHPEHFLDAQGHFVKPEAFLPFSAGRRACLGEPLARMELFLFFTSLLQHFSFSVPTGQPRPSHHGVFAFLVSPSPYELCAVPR
Sequence of Cytochrome P450 2C19 (P33261 whole entry): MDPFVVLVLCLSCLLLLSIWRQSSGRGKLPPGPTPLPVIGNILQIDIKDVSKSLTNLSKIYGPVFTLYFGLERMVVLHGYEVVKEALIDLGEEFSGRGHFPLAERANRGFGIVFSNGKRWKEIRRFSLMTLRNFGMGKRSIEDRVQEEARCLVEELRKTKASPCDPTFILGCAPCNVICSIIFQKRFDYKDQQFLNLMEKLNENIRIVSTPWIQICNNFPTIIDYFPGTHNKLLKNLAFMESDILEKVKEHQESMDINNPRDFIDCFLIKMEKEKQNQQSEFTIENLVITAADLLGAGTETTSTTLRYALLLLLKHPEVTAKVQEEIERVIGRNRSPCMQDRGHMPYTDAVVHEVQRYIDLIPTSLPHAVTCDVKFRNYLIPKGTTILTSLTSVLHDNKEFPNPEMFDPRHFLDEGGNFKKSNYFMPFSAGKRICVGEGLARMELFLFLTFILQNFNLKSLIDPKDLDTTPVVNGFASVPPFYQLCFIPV

CC(C)(C)OC(=O)N[C@H]1CCCCC/C=C\[C@@H]2C[C@@]2(C(=O)NS(=O)(=O)C2CC2)NC(=O)[C@@H]2C[C@@H](OC(=O)N3Cc4cccc(F)c4C3)CN2C1=O [DANOPREVIR]
IC50 [1]: 0.2 nM | bioavailability [2]: 15% | Activity (Cytochrome P450 3A4 [3]): Not Active | INH (Cytochrome P450 2D6): > 25 µM | bioavailability [4]: 78% | Papp A→B [5]: < 2 ×10⁻⁶ cm/s | solubility thermodynamic [6]: > 1000 µg/mL | Vdss (Rattus norvegicus): 0.155 L/kg | EC50 (Hepatitis C virus [7]): 1.6 nM | EC50 (Hepatitis C virus [8]): 20 nM | INH (Cytochrome P450 2C9): > 25 µM | hepatic extraction ratio at 1 µM [9]: 0.58 | IC50 [10]: 0.2 nM | EC50 (Hepatitis C virus [11]): 20 nM | AUC(0-t) at 24 h [12]: 9500 ng·h/mL | Ki (NS3 protease): 44.8 nM | EC50 (Hepatitis C virus [13]): < 0.25 nM | IC50 [14]: 1 nM | solubility thermodynamic [15]: 0.5 µg/mL (≈ 0.683 µM) | hepatic extraction ratio at 1 µM [16]: 0.23 | IC50 [17]: 0.2 nM | IC50 [18]: 0.2 nM | Ratio EC50 (Hepatitis C virus [19]): 2 | IC50 (Hepatitis C virus [20]): 0.24 nM | IC50 [21]: 1.6 nM | IC50 [22]: 0.2 nM | EC50 (Hepatitis C virus [23]): 2.4 nM | Ki [24]: 1 nM | CC50 [25]: 54000 nM | EC50 (Hepatitis C virus [26]): 0.5 nM | IC50 [27]: 3.5 nM | hepatic extraction ratio at 1 µM [28]: 0.54 | inhibition (INH) [29]: Not Active | INH (Cytochrome P450 2C19): > 25 µM | hepatic extraction ratio [30]: 0.04 | INH (Cytochrome P450 3A4 [31]): 12 µM | AUC(0-t) at 24 h [32]: 90800 ng·h/mL | efflux ratio [33]: > 2 | pKa [34]: 5.27 | hepatic extraction ratio at 1 µM [35]: 0.06 | logD [36]: 2.1 | Kp [37]: 10 | IC50 (Hepatitis C virus [38]): 5.7 nM | INH (Cytochrome P450 1A2): > 25 µM | Kp [39]: 30 | solubility thermodynamic [40]: 548 µg/mL (≈ 749 µM)

CC(C)(C)OC(=O)N[C@H]1CCCCC/C=C\[C@@H]2C[C@@]2(C(=O)O)NC(=O)[C@@H]2C[C@@H](OC(=O)N3CCc4ccccc4C3)CN2C1=O
Ratio [41]: 10 | IC50 [14]: 177 nM | EC50 (Hepatitis C virus [23]): 2350 nM
